Experimental findings from patent US9150557B1, “Compositions and methods for the treatment of hyperglycemia” (CELLIX BIO PRIVATE LIMITED, priority 2014, dated 2015) are described below.

The nature of this data set: Water solubility: distilled water added to a weighed amount until a clear solution is obtained. The format is physicochemical. As to conditions: for solubility: thermodynamic from solid, distilled water, weight in mg divided by volume of clear solution in mL. How it is done: Measurement of the water solubility of the test compounds is accomplished by using methods well known to those skilled in the art. Specifically, to a weighed amount of the test compound of the example compound Formula I (1-3) distilled water was added in small proportions until a clear solution was obtained. The total volume of the solution is measured. The water solubility is calculated by dividing the weight of the salt, in milligrams (mg), by the volume of the solution, in mL. […] The compound of Formula I (1-3) is therefore, at least 260 times more soluble in water than EPA itself. This is a clear indication of an unexpectedly high degree of bioavailability of the compositions of the invention. Highly water soluble medicinal preparations, when administered orally, result in efficient absorption from the gastrointestinal tract in to systemic circulation. Furthermore, water soluble preparations are especially suitable for parenteral administration.

SMILES strings stand for the structures.

The compound `CC/C=C\C/C=C\C/C=C\C/C=C\C/C=C\CCCC(=O)O` [EPA, Eicosapentaenoic acid, reference compound] displayed a solubility of under 0.2 mg/mL.

In the case of `CC/C=C\C/C=C\C/C=C\C/C=C\C/C=C\CCCC(=O)OCCCN1CC(O)[C@@H](O)[C@H](O)C1CO` (stereo partly drawn) [Formula I (1-3)], the solubility was 68.6 mg/mL. In addition, the “times more soluble in water than EPA” value (ratio of water solubility versus eicosapentaenoic acid (EPA)) is reported as “at least 260 times”.
